Measurements: patent US11608501B2, “Methods for modifying RNA splicing” (PTC THERAPEUTICS, INC., priority 2017, dated 2023)

Assays:
SH-SY5Y cells = assay: Endpoint RT-PCR of alternatively spliced mRNAs (iExon inclusion) in cultured cells; assay type: cell-based, human; settings: cells treated at 10 nM, 1 μM or 10 μM vs DMSO; genes of FIGS. 2A-6A
Protocol: SH-SY5Y cells derived from a bone marrow biopsy of a patient with neuroblastoma were plated at 600,000 cells/well in 2 mL DMEM with 10% FBS in 6-well plates, and incubated for 4 hours in a cell culture incubator (37° C., 5% CO2, 100% relative humidity). Cells were then treated with Compound 64 at different concentrations (in 0.1% DMSO) for 24 hours. After removal of the supernatant, cells were lysed in RLT buffer with ß-mercaptoethanol and total RNA was extracted according to the manufacturer's protocol (RNeasy Mini Kit, Qiagen, Inc.).
One-step RT-PCR was performed using AgPath-ID™ One-Step RT-PCR Reagents (Life Technologies, Inc.) using 50 ng total RNA as input. The following PCR conditions were used: Step 1: 48° C. (15 min), Step 2: 95° C. (10 min), Step 3: 95° C. (30 sec), Step 4: 55° C. (30 sec), Step 5: 68° C. (1 min), repeat Steps 3 to 5 for 34 cycles, then hold at 4° C. The presence of iExons within alternatively spliced mRNAs was identified using primers listed in Tables 13 through 19, which correspond to FIGS. 2, 3, 4 and 5. PCR products were separated on 2% agarose E-gels (Life Technologies, Inc.), stained with ethidium bromide and visualized using a gel imager (UVP). […]

[1] = tested on: RNA having an intronic REMS sequence; assay: RNA sequencing of compound-treated cells: iExon inclusion or eExon formation (ΔPSI, Fisher's Exact Test); assay type: cell-based; settings: cells treated with Compound 64 (24 nm and 100 nm); genes listed in Table 10; adjusted Fisher's Exact Test p value
Protocol: Techniques known to one skilled in the art may be used to determine the amount of an RNA transcript(s). In some aspects, the amount of one, two, three or more RNA transcripts is measured using deep sequencing, such as ILLUMINA® RNASeq, ILLUMINA® next generation sequencing (NGS), ION TORRENT® RNA next generation sequencing, 454™ pyrosequencing, or Sequencing by Oligo Ligation Detection (SOLID™), Single Molecule, Real-Time (SMRT) sequencing, Nanopore sequencing. In other aspects, the amount of multiple RNA transcripts is measured using an exon array, such as the GENECHIP® human exon array. In certain aspects, the amount of one, two, three or more RNA transcripts is determined by RT-PCR. In other aspects, the amount of one, two, three or more RNA transcripts is measured by RT-qPCR or digital color-coded barcode technology. Techniques for conducting these assays are known to one skilled in the art. […]
Where “U” represents the value for probability of iExon inclusion (a+b)/2/[(a+b)/2+c] in the absence of the compound; and, where “C” represents the value for probability of iExon inclusion (a+b)/2/[(a+b)/2+c] in the presence of the compound. The values for “a” and “b” represent the number of reads supporting inclusion of an iExon in an RNA transcript. […] The value for “c” represents the number of reads supporting exclusion of an iExon. […]

CC1(C)CC(Oc2ccc(-c3ccc(-c4cn[nH]c4)cc3O)nn2)CC(C)(C)N1 [Compound 64, 5-(1H-pyrazol-4-yl)-2-(6-((2,2,6,6-tetramethylpiperidin-4-yl)oxy)pyridazin-3-yl)phenol]
iExon-containing PCR product on agarose gel (SH-SY5Y cells): appearance of a slower migrating PCR product containing the intronic-derived exon | effect on inclusion of an iExon or formation of an eExon with a corresponding change in isoform abundance [1]: statistically significant
